These results are taken from article PMC11944884, “Bioactive Secondary Metabolites of Two Chinese Edible Boletes, Phlebopus portentosus and Butyriboletus roseoflavus” (Molecules, 2025).

A word on the pIC50: it is the IC50 on a negative log10 scale, so that one unit is a factor of ten. A lower pIC50 goes with a large IC50. What is called inhibition is the share of the control response that was lost under treatment. The pEC50 is the negative decadic logarithm of the EC50, by convention in mol/L. The low end stands for a high EC50, the high end for a low EC50.

Each structure is given as a SMILES string. pEC50, pIC50: −log10 of the molar value.

What all share (experiment): microbe, parasite or virus in culture
In one assay the test system is influenza virus A/H3N2. The assay is classed as cell-based, influenza virus A (H3N2 strain). The following applies: for pEC50: MDCK.
Assay [1] concerns influenza virus B/Victoria strain. It is filed as cell-based. To be noted: MDCK.
For assay [2], the system named is A/H3N2 and B/Victoria strains. It is filed as cell-based. The following applies: Influenza A virus, range over compounds 22 and 26 and both strains.
The mark [3] stands for this setting: Influenza A virus, H3N2, MDCK, read-out: CPE inhibition.

Regarding `CC(C)[C@@H](C)/C=C/[C@@H](C)[C@H]1CC[C@H]2C3=C[C@@H](O)[C@@]4(O)C[C@@H](O)CC[C@]4(C)[C@H]3CC[C@]12C` [Compound 22, cerevisterol], the pIC50 in the assay with influenza virus A/H3N2 (Influenza A virus, H3N2, MDCK) is 5.02. For the same molecule, in the assay with influenza virus A/H3N2 (setting [3]), the inhibition at 1.56 µM amounted to 0%, the inhibition at 3.13 µM was 0%, the inhibition at 6.25 µM stood at 0% and the inhibition at 12.5 µM stood at 75%. The inhibition at 25 µM in the assay with influenza virus A/H3N2 (setting [3]) was 75%. Further, the negative logarithm of the EC50 (pEC50) with influenza virus A/H3N2 is 5.02. In assay [1], this molecule gave a pEC50 of 5.18 and a pIC50 of 5.18. Also, in assay [1] (read-out: CPE inhibition), the inhibition at 1.56 µM was 0%, the inhibition at 3.13 µM came to 0%, the inhibition at 6.25 µM amounted to 10% and the inhibition at 12.5 µM was determined as 75%. Besides, the inhibition at 25 µM in assay [1] (read-out: CPE inhibition) is 75%. In assay [2], this molecule had a pEC50 of 5.02 to 5.44.

In the assay with influenza virus A/H3N2 (Influenza A virus, H3N2, MDCK), `CC(C)[C@@H](C)/C=C/[C@@H](C)[C@H]1CC[C@H]2C3=C(CC[C@]12C)[C@@]1(C)CC[C@H](O)C[C@@]12O[C@H]2[C@H]3O` [Compound 26, (22E,24R)-5α,6α-epoxy-ergosta-8,22-dien-3β,7α-diol] had a negative-log IC50 (pIC50) of 5.40. Also, in the assay with influenza virus A/H3N2 (setting [3]), the inhibition at 0.78 µM was determined as 3.3%, the inhibition at 1.56 µM was 15%, the inhibition at 3.13 µM was 27.5% and the inhibition at 6.25 µM was determined as 75%. Further, the inhibition at 12.5 µM in the assay on influenza virus A/H3N2 (setting [3]) is 82.5%. The molecule further showed a pEC50 in the assay on influenza virus A/H3N2 of 5.40. In assay [1], this molecule had a pEC50 of 5.44 and a pIC50 of 5.44. For the same molecule, in assay [1] (read-out: CPE inhibition), the inhibition at 0.78 µM is 6.6%, the inhibition at 1.56 µM stood at 15%, the inhibition at 3.13 µM is 25% and the inhibition at 6.25 µM turned out to be 75%. Further, in assay [1] (read-out: CPE inhibition), the inhibition at 12.5 µM was found to be 75%. The pEC50 in assay [2] is 5.02 to 5.44.
